From US20240383900A1, “SUBSTITUTED PYRAZOLO [1,5-A]PYRIMIDINE-7-AMINE COMPOUNDS AS CDK INHIBITORS AND THEIR THERAPEUTIC USE” (Carrick Therapeutics Limited, priority 2021, published 2024)
Read-outs that look alike come from different tables or passages of the source.

How the values were obtained:
Human CDK12 wt/CycK = Human CDK12 wt/CycK (Homo sapiens (Human), UniProt Q9NYV4); experiment: Radiometric protein kinase assay (33PanQinase Activity Assay), CDK12; type: biochemical; settings: for CDK7/CDK12: ratio of CDK7 IC50 to CDK12 IC50, greater than 1 indicates selectivity for CDK12
Human CDK12 wt/CycK, sequence (Q9NYV4 whole entry): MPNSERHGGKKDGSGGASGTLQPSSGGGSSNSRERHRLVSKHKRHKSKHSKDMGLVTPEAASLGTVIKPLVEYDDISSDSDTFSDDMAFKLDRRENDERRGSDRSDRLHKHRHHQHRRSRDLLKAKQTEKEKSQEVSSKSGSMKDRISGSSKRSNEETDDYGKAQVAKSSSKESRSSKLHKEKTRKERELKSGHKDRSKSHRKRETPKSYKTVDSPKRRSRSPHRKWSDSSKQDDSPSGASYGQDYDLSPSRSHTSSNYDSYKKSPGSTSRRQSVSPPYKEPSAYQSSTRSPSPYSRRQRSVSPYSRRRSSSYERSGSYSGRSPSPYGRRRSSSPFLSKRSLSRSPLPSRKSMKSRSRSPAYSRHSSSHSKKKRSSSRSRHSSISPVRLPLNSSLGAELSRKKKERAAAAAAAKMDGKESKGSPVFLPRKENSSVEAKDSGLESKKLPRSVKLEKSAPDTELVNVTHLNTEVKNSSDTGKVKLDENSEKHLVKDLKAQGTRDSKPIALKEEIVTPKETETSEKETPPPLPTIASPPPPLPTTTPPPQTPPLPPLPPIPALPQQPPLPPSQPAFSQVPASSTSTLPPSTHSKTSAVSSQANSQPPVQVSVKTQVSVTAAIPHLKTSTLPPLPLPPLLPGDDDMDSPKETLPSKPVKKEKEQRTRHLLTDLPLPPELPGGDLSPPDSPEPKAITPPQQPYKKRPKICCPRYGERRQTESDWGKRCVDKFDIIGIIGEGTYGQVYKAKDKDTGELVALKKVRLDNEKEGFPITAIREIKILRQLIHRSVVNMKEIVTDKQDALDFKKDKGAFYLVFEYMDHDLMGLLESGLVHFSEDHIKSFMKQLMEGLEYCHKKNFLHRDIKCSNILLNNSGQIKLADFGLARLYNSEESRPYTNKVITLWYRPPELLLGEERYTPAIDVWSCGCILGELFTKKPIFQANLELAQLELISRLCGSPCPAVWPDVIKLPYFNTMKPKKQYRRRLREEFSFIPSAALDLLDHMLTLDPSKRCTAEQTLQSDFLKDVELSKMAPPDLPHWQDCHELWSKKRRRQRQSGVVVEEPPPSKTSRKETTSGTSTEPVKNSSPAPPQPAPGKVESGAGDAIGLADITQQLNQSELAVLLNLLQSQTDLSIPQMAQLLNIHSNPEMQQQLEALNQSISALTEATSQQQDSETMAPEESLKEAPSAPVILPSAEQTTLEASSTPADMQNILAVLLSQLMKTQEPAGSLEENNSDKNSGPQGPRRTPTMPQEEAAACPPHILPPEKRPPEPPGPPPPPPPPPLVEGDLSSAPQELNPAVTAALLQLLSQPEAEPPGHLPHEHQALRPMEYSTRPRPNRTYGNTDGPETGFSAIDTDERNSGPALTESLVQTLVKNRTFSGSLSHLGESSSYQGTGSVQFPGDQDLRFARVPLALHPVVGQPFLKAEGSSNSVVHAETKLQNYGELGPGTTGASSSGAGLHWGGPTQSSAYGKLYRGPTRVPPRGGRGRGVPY
Human CDK12 wt/CycK, sequence (O75909 whole entry partner): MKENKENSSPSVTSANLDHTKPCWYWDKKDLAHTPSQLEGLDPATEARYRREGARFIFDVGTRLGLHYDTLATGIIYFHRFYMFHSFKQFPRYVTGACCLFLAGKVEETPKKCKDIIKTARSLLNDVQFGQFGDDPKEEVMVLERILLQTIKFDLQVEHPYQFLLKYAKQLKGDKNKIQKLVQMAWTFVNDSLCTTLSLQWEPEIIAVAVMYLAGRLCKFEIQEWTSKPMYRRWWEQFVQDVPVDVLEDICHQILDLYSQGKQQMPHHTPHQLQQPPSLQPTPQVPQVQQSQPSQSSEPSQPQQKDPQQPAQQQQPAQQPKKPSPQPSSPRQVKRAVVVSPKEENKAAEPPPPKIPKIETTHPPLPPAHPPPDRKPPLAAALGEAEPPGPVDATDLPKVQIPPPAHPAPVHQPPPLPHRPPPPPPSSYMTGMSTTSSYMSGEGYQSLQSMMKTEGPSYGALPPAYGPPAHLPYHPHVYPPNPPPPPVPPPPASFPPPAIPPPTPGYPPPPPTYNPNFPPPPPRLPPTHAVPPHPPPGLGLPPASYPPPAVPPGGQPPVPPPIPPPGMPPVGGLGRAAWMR
Method in brief: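 Radiometric 33P assay: ATP, test compound (in 10% DMSO) and premixed substrate/enzyme incubated 60 min at 30 °C, stopped with 2% H3PO4. 33Pi incorporation counted by scintillation; least-squares curve fit.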

A673 cells [1] = experiment: Cytotoxicity in A673 cells (Cell Titer Glo viability); type: cell-based; settings: for Ratio of Biochemical Potency:Cellular Potency: CDK12 IC50 / A673 IC50; for IC50: Homo sapiens
Method in brief: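 Cells plated at 1.2×10^5 per well in DMEM+10% FBS, 24 h, then compound series ± MLN4924 (30 nM final) in 0.1% DMSO for 72 h. Viability by Cell Titer Glo luminescence, normalised to vehicle (100%) and 0.1% Triton x-100 (0%); MLN4924 curves normalised to MLN4924-treated controls.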

A673 cells [2] = experiment: A673 cytotoxic potency shift in the presence of MLN4924 (cyclin K degrader activity); type: cell-based; settings: 30 nM MLN4924, 72 hours
Protocol: Inhibition of cell viability by test compounds was assessed in A673 cells (ATCC CRL-1598) and the compound mode of action was attributed to a “molecular-glue”/cyclin K-degradation mechanism by probing for a loss of compound potency in the presence of the NEDD8-activating enzyme inhibitor, MLN4924.
Cells were plated in 96-well plates at a density of […] viable cells per well in 200 μL fully supplemented growth medium (DMEM+10% heat inactivated foetal bovine serum) and incubated for 24 hours in standard tissue culture conditions. Compounds, including MLN4924, were solubilised in DMSO and then diluted in fully supplemented growth medium at 2× their final assay concentration such that the final DMSO concentration was 0.1%. Growth medium in the assay plates was replaced with 50 μL of growth medium containing 2×MLN4924 (final assay concentration: 30 nM, where tested) or vehicle only and 50 μL of growth medium containing a 2× compound concentration series or vehicle only such that each compound was at 1× final assay concentration in 100 μL.
Cells were then incubated for 72 hours in standard tissue culture conditions before viability was assessed using 50 μL Cell Titer Glo reagent (Promega) per well and luminescence measured on an EnVision plate reader. Data were normalised to vehicle control (100%) and cells treated with 0.1% Triton x-100 for 1 hour before viability measurement (0%; full cell kill). IC50 values were determined using a semi-logistic curve fit with parameters “top” fixed at 100% and “bottom” at or below 0%. Viability curves generated in the presence of MLN4924 were normalised and fixed to controls treated with MLN4924.

Human CDK7/CycH/MAT1 = Human CDK7/CycH/MAT1 (Homo sapiens (Human), UniProt P50613); experiment: Radiometric protein kinase assay (33PanQinase Activity Assay), CDK7; type: biochemical; settings: ATP 3 μM
Human CDK7/CycH/MAT1, sequence (P50613 whole entry): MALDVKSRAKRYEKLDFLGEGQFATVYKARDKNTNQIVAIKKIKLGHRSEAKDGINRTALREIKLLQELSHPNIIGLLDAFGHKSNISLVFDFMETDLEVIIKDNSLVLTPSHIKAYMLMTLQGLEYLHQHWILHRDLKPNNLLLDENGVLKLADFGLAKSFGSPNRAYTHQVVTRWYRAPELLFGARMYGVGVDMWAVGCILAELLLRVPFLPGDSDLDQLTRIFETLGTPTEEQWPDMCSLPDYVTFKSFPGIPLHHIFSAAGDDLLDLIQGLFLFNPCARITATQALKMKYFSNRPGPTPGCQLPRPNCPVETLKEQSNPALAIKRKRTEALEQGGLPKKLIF
Human CDK7/CycH/MAT1, sequence (P51946 whole entry partner): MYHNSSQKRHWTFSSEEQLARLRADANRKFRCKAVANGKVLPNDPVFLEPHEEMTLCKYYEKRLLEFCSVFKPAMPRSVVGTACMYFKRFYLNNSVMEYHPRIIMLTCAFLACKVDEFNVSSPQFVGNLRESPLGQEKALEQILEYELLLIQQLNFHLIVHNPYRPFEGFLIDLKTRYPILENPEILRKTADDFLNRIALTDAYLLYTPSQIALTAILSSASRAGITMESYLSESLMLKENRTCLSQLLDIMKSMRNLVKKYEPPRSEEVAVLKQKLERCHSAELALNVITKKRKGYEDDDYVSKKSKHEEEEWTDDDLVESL
Human CDK7/CycH/MAT1, sequence (P51948 whole entry partner): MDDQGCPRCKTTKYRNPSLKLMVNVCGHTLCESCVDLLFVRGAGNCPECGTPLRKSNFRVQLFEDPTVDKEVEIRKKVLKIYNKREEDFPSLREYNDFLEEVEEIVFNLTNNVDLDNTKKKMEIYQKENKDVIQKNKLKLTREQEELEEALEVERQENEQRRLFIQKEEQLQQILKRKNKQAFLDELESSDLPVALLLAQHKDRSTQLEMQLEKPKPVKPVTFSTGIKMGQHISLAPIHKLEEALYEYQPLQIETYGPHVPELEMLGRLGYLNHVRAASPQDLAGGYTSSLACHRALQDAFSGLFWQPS

[3] = ATP 0.3 μM, read-out: CDK12 IC50
[4] = read-out: CKD12 Biochemical Potency IC50
[5] = A673, read-out: Cellular Potency IC50 (nM) (in A673 cells)
[6] = A673 cells, 72 hours, read-out: A673 IC50

Row | Structure (SMILES) | IC50 (Human CDK12 wt/CycK; [3]) | CDK7/CDK12 (Human CDK12 wt/CycK) | IC50 (Human CDK12 wt/CycK; [4]) | Ratio of Biochemical Potency:Cellular Potency (A673 cells [1]) | IC50 (A673 cells [1]; [5]) | IC50 (A673 cells [1]; [6]) | Cyclin K Degrader Activity (A673 potency shift + MLN4924) (A673 cells [2]) | IC50 (Human CDK7/CycH/MAT1)
1 | c1ccc(-c2ccc(CNc3cc(O[C@H]4CCCNC4)nc4c(C5CC5)cnn34)cc2)nc1 [PPA-064] | 18 nM | 14.9 | 18 nM | 15.00 | 1.2 nM | 1.2 nM | +++ (>5 fold change.) | 268 nM
2 | c1cnc(-c2ccc(CNc3cc(N[C@H]4CCNC4)nc4c(C5CC5)cnn34)cc2)nc1 [PPA-090] | 23 nM | 18.2 | 23 nM | 4.89 | 4.7 nM | 5.2 nM | +++ (>5 fold change.) | 418 nM
3 | N#Cc1cnn2c(NCc3ccc(-c4ccccc4)cc3)cc(N[C@H]3CCNC3)nc12 [PPA-085] | 23 nM | 29.3 | 23 nM | 17.69 | 1.3 nM | 1.3 nM | ++ (>2 and ≤5 fold change.) | 675 nM
4 | N#Cc1cnn2c(NCc3ccc(-c4ccccn4)cc3)cc(N[C@H]3CCNC3)nc12 [PPA-086] | 11 nM | 37.9 | 11 nM | 12.22 | 0.9 nM | 0.9 nM | +++ (>5 fold change.) | 417 nM
5 | c1ccc(-c2ccc(CNc3cc(N[C@H]4CCCNC4)nc4c(C5CC5)cnn34)cc2)nc1 [PPA-044] | 51 nM | 6.6 | 51 nM | 18.89 | 2.7 nM | 2.7 nM | +++ (>5 fold change.) | 338 nM
6 | c1ccc(-c2ccc(CNc3cc(C4CNC4)nc4c(C5CC5)cnn34)cc2)nc1 [PPA-058] | 204 nM | 25.8 | 204 nM | 29.57 | 6.9 nM | 6.9 nM | +++ (>5 fold change.) | 5260 nM
7 | CO[C@H]1CNCC[C@@H]1CNc1cc(NCc2ccc(-c3ccccn3)cc2)n2ncc(C3CC3)c2n1 [PPA-087] | 503 nM | 3.2 | 503 nM | 57.82 | 8.7 nM | 8.7 nM | +++ (>5 fold change.) | 1630 nM
8 | CN(c1cc(NCc2ccc(-c3ccccn3)cc2)n2ncc(C3CC3)c2n1)C1CCNCC1 [PPA-039] | 169 nM | 12.4 | 169 nM | 60.36 | 2.8 nM | 2.8 nM | + (>1 and ≤2 fold change.) | 2090 nM
9 | N#Cc1cnn2c(NCc3ccc(-c4ccccc4)cc3F)cc(NC[C@H]3CCNC[C@@H]3O)nc12 [PPA-070] | 107 nM | 5.3 | 107 nM | 20.19 | 5.3 nM | 5.3 nM | +++ (>5 fold change.) | 562 nM
10 | c1ccc(-c2ccc(CNc3cc(O[C@@H]4CCNC4)nc4c(C5CC5)cnn34)cc2)nc1 [PPA-060] | 77 nM | 37.3 | 77 nM | 26.55 | 2.9 nM | 2.9 nM | +++ (>5 fold change.) | 2870 nM
11 | c1ccc(-c2ccc(CNc3cc(N[C@H]4CCNC4)nc4c(C5CC5)cnn34)cc2)nc1 [PPA-037] | 28 nM | 8.9 | 28 nM | 40.00 | 0.7 nM | 0.7 nM | +++ (>5 fold change.) | 250 nM
12 | c1ccc(-c2ccc(CNc3cc(OC4CNC4)nc4c(C5CC5)cnn34)cc2)nc1 [PPA-049] | 32 nM | 30.7 | 32 nM | 4.64 | 6.9 nM | 6.9 nM | +++ (>5 fold change.) | 982 nM
13 | c1ccc(-c2ccc(CNc3cc(NC4CNC4)nc4c(C5CC5)cnn34)cc2)nc1 [PPA-047] | 31 nM | 28.8 | 31 nM | 1.79 | 17.3 nM | 17.3 nM | ++ (>2 and ≤5 fold change.) | 892 nM
14 | c1cnn(-c2ccc(CNc3cc(N[C@H]4CCNC4)nc4c(C5CC5)cnn34)cc2)c1 [PPA-091] | 382 nM | 8.0 | 382 nM | 50.26 | 7.6 nM | 10.3 nM | +++ (>5 fold change.) | 3070 nM
15 | O[C@H]1CNCC[C@@H]1CNc1cc(NCc2ccc(-c3nccs3)cc2)n2ncc(C3CC3)c2n1 [PPA-018] | 39 nM | 2.7 | 39 nM | 43.33 | 0.9 nM | 0.9 nM | +++ (>5 fold change.) | 106 nM
